Test results taken from US8140141B2, “Devices and methods for fluorescent inspection and/or removal of material in a sample” (University of Utah Research Foundation, priority 2006, dated 2012).

Tests used:
[1] = conventional blue dyes for sentinel lymph node procedures, after injection into tissue; cited from earlier work
[2] = test system: HCT-116 human colon tumor cells
[3] = test system: P-388 murine leukemia cells

Compound | Passage out of lymphatic ducts into surrounding tissue [1] | Cellular uptake [2] | Cellular uptake [3]
CCN(CC)c1ccc(C(=C2C=CC(=[N+](CC)CC)C=C2)c2cc(S(=O)(=O)[O-])ccc2S(=O)(=O)[O-])cc1.[Na+] [Lymphazurine] | tend to flow out of the lymphatic ducts into the surrounding tissue very quickly | – | –
CN(C)c1ccc2nc3ccc(=[N+](C)C)cc-3sc2c1 [methylene blue] | tend to flow out of the lymphatic ducts into the surrounding tissue very quickly | – | –
doxorubicin-cobalamin conjugate | – | can be observed | can be observed
